PMC7925909, “The Multi-Level Mechanism of Action of a Pan-Ras Inhibitor Explains its Antiproliferative Activity on Cetuximab-Resistant Cancer Cells” (Frontiers in Molecular Biosciences, 2021)

How the values were obtained:
HRas = target: T1, HRas (Homo sapiens, UniProt P01112); test: STD-NMR and native MS of the HRas-GDP-cmp4 ternary complex; the EC50 is from SPR inhibition of RasGRF1 binding to HRas-GDP; mant-nucleotide dissociation/exchange also inhibited
T1 construct: N-terminal His-tagged, residues 1-166

HRas^G13D = target: T2, HRas^G13D (Homo sapiens, UniProt P01112, G13D); test: STD-NMR on HRas G13D-GDP; dose-dependent inhibition of intrinsic and GEF-mediated mant-nucleotide dissociation/exchange; type: binding
T2 construct: N-terminal His-tagged, residues 1-166
T2 sequence (P01112 1-166 G13D): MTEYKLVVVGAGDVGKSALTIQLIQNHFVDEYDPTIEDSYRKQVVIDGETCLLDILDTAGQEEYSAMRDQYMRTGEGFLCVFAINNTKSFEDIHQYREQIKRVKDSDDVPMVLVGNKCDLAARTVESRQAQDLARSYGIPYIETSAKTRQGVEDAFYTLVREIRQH

T1 sequence (P01112 1-166): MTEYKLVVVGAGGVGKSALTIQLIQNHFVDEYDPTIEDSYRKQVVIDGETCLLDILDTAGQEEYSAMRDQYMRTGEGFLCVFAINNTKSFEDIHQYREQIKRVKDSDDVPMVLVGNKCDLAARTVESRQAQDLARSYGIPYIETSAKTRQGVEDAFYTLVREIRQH

EC50 (HRas): ~170 µM
Compound: OC[C@H]1O[C@@H](O[C@H]2[C@H](O)[C@@H](O)[C@H](N(Cc3ccc(O)c(O)c3)OCc3ccccc3)O[C@@H]2CO)[C@H](O)[C@@H](O)[C@H]1O [cmp4]
STD-NMR on HRas G13D-GDP; dose-dependent inhibition of intrinsic and GEF-mediate (HRas^G13D): STD analysis on HRas^G13D mutant protein saturated with cmp4 shows that cmp4 also interacts with the mutant protein
